Test results from paper PMC3684770 (Free Radical Biology & Medicine, 2013).
Structures can show the parent of a compound that is named as a salt. Where two headings read alike, the source gives them in different places.

How the values were obtained:
Nrf2-ARE pathway = test: ARE reporter assay in CHO 4xARE-TK-GFP cells (Spectrum library hits); details: for Toxic dose: lowest dose at which a reduction in GFP fluorescence was observed; for Fold GFP induction: average fold over baseline at the maximal response, CHO cells, 24 h
Protocol: The Z′ score was calculated as follows Z′=1−(3SD^++3SD^−)/(Ave^+–Ave^−) where SD^+ = standard deviation of positive control wells; SD^− = standard deviation of negative control wells; Ave^+ = average fluorescence reading of positive control wells; Ave^− = average fluorescence reading of negative control wells.
Media was removed by hand and replaced (1 compound/well) with the Spectrum library diluted to 10 μM in 0.1% DMSO using a Q-bot liquid handling system (Genetix, New Milton, UK). […] The TK-GFP CHO ARE cell line was screened twice in a single point assay and the control TK-GFP CHO cell line was screened once to eliminate false positives.
The compounds were applied in triplicate to confluent cells in 96 well plates in serum free medium for 24 hours and the induction of GFP measured in a fluorescence plate reader.
In order to screen the Spectrum collection of 2000 molecules the reporter assay was optimised in […]. To assess the suitability of the assay for library screening, a Z’ score calculation was performed by treating alternate wells with vehicle (0.1% DMSO) and 10 µM Ebselen as a positive control (see calculation in Methods). […] The library was subsequently screened at a single point concentration of 10µM for every compound. Drug library dilutions and plating were performed with a Q-BOT liquid handling system and both the 4xARE-TK-GFP reporter cell line and TK-GFP control cell line were tested for their response to the compounds. Hits were identified as having data points more than three standard deviations above the background level, which was the average value of 24 wells treated with vehicle (0.1% DMSO) only. Hit compounds were checked to see if they generated a response in the control cell line, for example by non-specific activation of transcription or autofluorescence. […] The library screen was repeated once in the 4xARE –TK-CHO cell line and compounds classed as hits in both screens were taken forward for further assessment.

[1] = system: 1321N1 astrocyte cell line; test: 1321N1 oxidative stress assay (serum withdrawal, DCF); details: for Emax: 1321-N1, 24 h, read-out: 1321N1 oxidative stress assay Max reduction; for 1321N1 oxidative stress assay Toxic dose: minimum dose at which toxicity was observed; for 1321N1 oxidative stress assay Max reduction: maximum % inhibition of DCF signal
Protocol: (§1) Media were then replaced with serum-free, phenol-free media for 5 h.

NSC34 cells = test: NSC34 oxidative stress assay (serum withdrawal, DCF); details: for Emax: NSC-34, 24 h, read-out: NSC34 oxidative stress assay Max reduction; for NSC34 oxidative stress assay Toxic dose: minimum dose at which toxicity was observed; for NSC34 oxidative stress assay Max reduction: maximum % inhibition of DCF signal, negative = prooxidant
Protocol: as §1

C6 astrocyte cell line = test: C6 oxidative stress assay (serum withdrawal, DCF); details: for Emax: 24 h, read-out: C6 oxidative stress assay Max reduction; for IC50: read-out: C6 oxidative stress assay IC50; for C6 oxidative stress assay Toxic dose: minimum dose at which toxicity was observed; for C6 oxidative stress assay Max reduction: maximum % inhibition of DCF signal
Protocol: as §1

[2] = Homo sapiens, 1321-N1, read-out: 1321N1 oxidative stress assay IC50

Compound | EC50 (Nrf2-ARE pathway; Cricetulus griseus) [µM] | Toxic dose (Nrf2-ARE pathway) [µM] | Emax ([1]; Homo sapiens) [%] | 1321N1 oxidative stress assay Toxic dose [1] | Emax (NSC34 cells; Mus musculus) [%] | NSC34 oxidative stress assay Toxic dose (NSC34 cells) | Emax (C6 astrocyte cell line; Rattus norvegicus, Astrocyte) [%] | IC50 (C6 astrocyte cell line; Rattus norvegicus, Astrocyte) [µM] | C6 oxidative stress assay Toxic dose (C6 astrocyte cell line) | IC50 [1, 2] [µM] | IC50 (NSC34 cells; Mus musculus, NSC-34, read-out: NSC34 oxidative stress assay IC50) [µM] | EC50 (Nrf2-ARE pathway; CHO ARE reporter, 7-point concentration response) [µM] | Fold GFP induction (Nrf2-ARE pathway) [fold] | 1321N1 oxidative stress assay Max reduction [1] [%] | NSC34 oxidative stress assay Max reduction (NSC34 cells) [%] | C6 oxidative stress assay Max reduction (C6 astrocyte cell line) [%] | IC50 (C6 astrocyte cell line; 24-h preconditioning, 6-h serum withdrawal, DCF fluorescence) [µM] | IC50 ([1]; read-out: 1321N1 oxidative stress assay IC50, 24-h preconditioning, 6-h serum withdrawal, DCF fluorescence) [µM]
CCCCCc1c2c(cc(O)c1C(=O)O)OC(=O)c1c(cc(OC)cc1C(=O)CCCC)O2 [Lobaric acid] | 17 | 100 | 0 | none | -26 | none | 9 | 3.14 | none | – | – | – | – | – | – | – | – | –
Cc1cc(O)c(C)c(O)c1C(=O)O [3-Methylorsellinic acid] | 9.59 | 100 | 53 | none | -12 | 0.3 µM | 56 | 3.1 | none | 3.26 | – | – | – | – | – | – | – | –
OC[C@H]1O[C@@H](n2cnc3c(NCc4ccco4)ncnc32)[C@H](O)[C@@H]1O [Kinetin riboside] | – | 30 | 25 | 3 µM | 0 | 3 µM | 40 | 3.84 | 10 µM | 0.246 | – | – | – | – | – | – | – | –
COc1cc(O)c(C)c(O)c1 [2,6-Dihydroxy-4-methoxytoluene] | 45 | 100 | 40 | None | 28 | None | 16 | 5.29 | 10 µM | – | ~3.26 | – | – | – | – | – | – | –
Methyl-7-deshydroxypyrogallin-4-carboxylate | – | 100 | – | none | – | 0.3 µM | – | – | none | – | – | > 100 | 2.83 | 45 | -23 | 70 | 2.95 | –
C=C(CC)C(=O)c1ccc(OCC(=O)O)c(Cl)c1Cl [Ethacrynic acid, reference compound] | 14 | 100 | 25 | – | -30 | 10 µM | 31 | 3.01 | – | 3.01 | – | – | – | – | – | – | – | –
COc1ccc(/C=C/C(=O)c2ccccc2)cc1 [4-Methoxychalcone] | 15 | 100 | 30 | None | 24 | None | 82 | 3.55 | None | 3.6 | – | – | 2.13 | – | – | – | – | –
CC(COc1ccccc1)NC(C)C(O)c1ccc(O)cc1 (stereo not shown) [Isoxsuprine hydrochloride, reference compound] | – | 100 | – | none | -16 | none | 40 | 23 | none | – | – | – | – | – | – | – | – | –
CCc1cccc(CC)c1N(COC)C(=O)CCl [Alachlor] | 3.29 | – | 83 | none | 0 | – | 62 | 6.22 | – | 1.97 | – | – | – | – | – | – | – | –
ClC1=C(Cl)C2(Cl)C3C(Cl)C(Cl)CC3C1(Cl)C2(Cl)Cl (stereo not shown) [Chlordane] | 9.18 | 100 | 68 | none | 0 | 3 µM | 20 | 3.57 | none | – | – | – | 1.56 | – | – | – | – | –
CC(C)N(C(=O)CCl)c1ccccc1 [Propachlor] | 1.49 | 100 | 50 | 10 µM | 0 | 10 µM | 74 | 0.645 | 10 µM | 0.829 | – | – | 3.25 | – | – | – | – | –
COc1cccc(O)c1O [3-Methoxycatechol] | 15.4 | 100 | 39 | none | -13 | 0.3 µM | 46 | 1.2 | 10 µM | – | – | – | – | – | – | – | – | –
CC(=O)O[C@H]1CCC2(C)C3=C(CCC2C1(C)C)[C@@]1(C)CC[C@@H](C(C)CCC=C(C)C)[C@]1(C)CC3 (stereo partly shown) [Euphol acetate] | – | 100 | – | none | – | none | – | – | none | – | – | – | 2.20 | 38 | -43 | 0 | – | 18
O=C(/C=C/c1ccc(O)cc1)c1ccc(O)cc1O [Isoliquiritigenin] | 2.52 | 30 | 50 | none | -6 | 1 µM | 46 | 28 | none | 1.78 | – | – | – | – | – | – | – | –
